In test [1] the target is T1, central muscarinic M-1-receptors (Rattus norvegicus, UniProt P08482).
T1 sequence (P08482 1-460): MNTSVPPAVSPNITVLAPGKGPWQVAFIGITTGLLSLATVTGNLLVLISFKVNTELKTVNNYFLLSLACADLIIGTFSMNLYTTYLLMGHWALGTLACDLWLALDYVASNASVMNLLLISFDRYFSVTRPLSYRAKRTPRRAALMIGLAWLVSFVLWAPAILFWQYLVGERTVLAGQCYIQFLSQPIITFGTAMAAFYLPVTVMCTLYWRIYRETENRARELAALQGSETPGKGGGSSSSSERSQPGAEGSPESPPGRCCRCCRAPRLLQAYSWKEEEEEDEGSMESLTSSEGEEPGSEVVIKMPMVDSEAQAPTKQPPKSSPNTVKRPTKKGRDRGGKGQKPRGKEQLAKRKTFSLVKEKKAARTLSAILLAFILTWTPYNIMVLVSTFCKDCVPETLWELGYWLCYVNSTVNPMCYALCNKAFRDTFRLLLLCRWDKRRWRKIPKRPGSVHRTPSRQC
In words: 3H-pirenzepine (Pz) displacement from rat brain homogenates. Type of test: binding. The procedure: (§1) Affinity to central cholinergic receptors in vitro was measured as the ability of the compounds to displace ^3 H-oxotremorine-M (Oxo-M) from rat brain homogenates, while affinity to central muscarinic M-1-receptors in vitro was measured as the ability of the compounds to displace ^3 H-pirenzepin (Pz) from rat brain homogenates.
was performed essentially as described by Watson et al., 1983, the conditions being very much the same as for ^3 H-oxotremorine binding, except that aliquots were incubated with 1.0 nM ^3 H-pirenzepine for 60 min. at 25° C. and that the reaction was stopped by direct filtration followed by 3 washes with 4 ml buffer.
Watson, M., Yamamura, H. I., and Roeske, W. R. (1983). "A unique regulatory profile and regional distribution of ^3 H-pirenzepin binding in the rat provide evidence for distinct M1 and M2 muscarinic receptor subtypes". Life Sci. 32 (1983) 3001-3011.

In test [2] the target is central cholinergic receptors. As to the kind of experiment: 3H-oxotremorine-M (Oxo-M) displacement from rat brain homogenates. The format is binding. To be noted: displacement of 3H-oxotremorine-M, pH 7.4, 40 min, 30° C. The procedure:
as §1
^3 H-oxotremorine M binding
was performed essentially as described by Birdsdall et al., 1980. Briefly, rat brains were homogenized in 100 vol (w/v) 10 mM Na,K-phosphate buffer (pH 7.4) and aliquots incubated with ^3 H-oxotremorine M (84.9 Ci/m-mol, NEN) alone or in the presence of test compound in a total volume of 1.5 ml for 40 min. at 30° C. The reaction was stopped by adding 5 ml cold buffer and filtered through Whatman GF/B filters soaked previously in 0.1% polyethylenimin (Sigma) for minimum 30 min. The filters were washed once with the same volume of buffer, transferred to scintillation vials and extracted in scintillation fluid (Pico-fluor 15, Packard) for at least two hours before counted in a liquid scintillation spectrometer (Beckman LS 1800). Non-specific binding was estimated at 10 μM atropine and all estimations made in triplicate. At least two displacement curves were made for each compound tested.
Birdsdall N. J. M., Hulme E. C., and Burgen A. S. V. (1980). "The Character of Muscarinic Receptors in Different Regions of the Rat Brain". Proc. Roy. […] London (Series B) 207, 1.

Where [3] appears, read: displacement of 1.0 nM 3H-pirenzepine, rat brain homogenates, 60 min, 25° C, read-out: Pz, IC50.

Structures are written as SMILES. Structures can show the parent of a compound that is named as a salt. Where two headings read alike, the source gives them in different places.

As to `Cn1nnc(C2=CCCNC2)n1` [Compound 8, 2-Methyl-5(1,2,5,6-tetrahydro-3-pyridyl)-2H-tetrazole, hydrobromide], the values for the 50% inhibitory concentration (IC50) in test [1] (setting [3]) and in test [2] were 2100 nM and 6.3 nM, respectively. As to `Cn1nnnc1C1=CCCNC1` [Compound 9, 1-Methyl-5(1,2,5,6-tetrahydro-3-pyridyl)-2H-tetrazole, fumarate], the IC50 is 27000 nM in test [1] (setting [3]) and 3200 nM in test [2]. Consider `CN1CCC=C(c2nnn(C)n2)C1` [Compound 10, 2-Methyl-5-(1-methyl-1,2,5,6-tetrahydro-3-pyridyl)2H-tetrazole], for which the IC50 in test [1] (setting [3]) is 390 nM; in test [2], 8.7 nM.

Turning to `Cn1nnc(C2CCCNC2)n1` (stereo not drawn) [Compound 13, 2-Methyl-(3-piperidyl)-2H-tetrazole, hydrochloride], the IC50 in test [1] was determined as 3600 nM; in test [2], 47 nM. Turning to `CN1CCCC(c2nnn(C)n2)C1` (stereo not drawn) [Compound 14, 2-Methyl-5-methyl-3-piperidyl)-2H-tetrazole, oxalate], the values for the IC50 in test [1] (setting [3]) and in test [2] were 7400 nM and 1700 nM, respectively. As for `CC(C)n1nnc(C2=CCCN(C)C2)n1` [Compound 16, 2-Isopropyl-5-(1-methyl-1,2,5,6-tetrahydro-3-pyridyl)-2H-tetrazole, fumarate], the concentration for half-maximal inhibition (IC50) in test [1] (setting [3]) came to 130 nM; in test [2] it was 120 nM. Turning to `CC(C)n1nnc(C2=CCCNC2)n1` [Compound 17, 2-Isopropyl-5-(1,2,5,6-tetrahydro-3-pyridyl)-2H-tetrazole, hydrobromide], the concentration for half-maximal inhibition (IC50) was found to be 480 nM in test [1] (setting [3]) and 280 nM in test [2].

In the case of `CCn1nnc(C2=CCCNC2)n1` [Compound 19, 2-Ethyl-5-(1,2,5,6-tetraydro-3-pyridyl)-2H-tetrazole, hydrobromide], the results for the IC50 in test [1] (setting [3]) and in test [2] were 1500 nM and 32 nM, respectively. For the compound `CCn1nnc(C2=CCCN(C)C2)n1` [Compound 20, 2-Ethyl-5-(1-methyl-1,2,5,6-tetrahydro-3-pyridyl)-2H-tetrazole, oxalate], the IC50 in test [1] (setting [3]) amounted to 130 nM; in test [2], 16 nM. For the compound `C#CCn1nnc(C2=CCCNC2)n1` [Compound 22, 2-(2-Propynyl)-5-(1,2,5,6-tetrahydropyridyl)-2H-tetrazole, hydrochloride], in test [1] (setting [3]), the half-maximal inhibitory concentration (IC50) was found to be 380 nM. As to `C=C=Cn1nnc(C2=CCCNC2)n1` [Compound 23, 2-Allenyl-5-(1,2,5,6-tetrahydro-3-pyridyl)-2H-tetrazole, hydrochloride], the IC50 amounted to 1100 nM in test [1] (setting [3]) and 140 nM in test [2]. As to `C#CCn1nnc(C2CCCNC2)n1` (stereo not drawn) [Compound 26, 2-(2-Propynyl)-5-(3-piperidyl)2H-tetrazole, hydrochloride], the 50% inhibitory concentration (IC50) in test [1] worked out at 400 nM; in test [2], 44 nM.

For the compound `CC1CC=C(c2nnn(C)n2)CN1` (stereo not drawn) [Compound 30, 2-Methyl-5-(6-methyl-1,2,5,6-tetrahydro-3-pyridyl)-2H-tetrazole, hydrobromide], the IC50 was determined as 1400 nM in test [1] (setting [3]) and 250 nM in test [2].

In the case of `CC1CC=C(c2nnn(C)n2)CN1C` (stereo not drawn) [Compound 31, 2-Methyl-5-(1,6-dimethyl-1,2,5,6-tetrahydro-3-pyridyl)-2H-tetrazole], the IC50 was found to be 140 nM in test [1] (setting [3]) and 310 nM in test [2]. With `CC1CC=C(c2nnn(C(C)C)n2)CN1` (stereo not drawn) [Compound 33, 2-Isopropyl-5-(6-methyl-1,2,5,6-tetraydro-3-pyridyl)-2H-tetrazole, hydrobromide], the results for the IC50 in test [1] (setting [3]) and in test [2] were 900 nM and 320 nM, respectively. As for `CC1CC=C(c2nnn(C(C)C)n2)CN1C` (stereo not drawn) [Compound 34, 2-Isopropyl-5-(1,6-dimethyl-1,2,5,6-tetrahydro-3-pyridyl)-2H-tetrazole], the results for the half-maximal inhibitory concentration (IC50) in test [1] (setting [3]) and in test [2] were 350 nM and 180 nM, respectively.

For the compound `C#CCn1nnc(C2=CCC(C)NC2)n1` (stereo not drawn) [Compound 36, 2-(2-Propynyl-5-(6-methyl-1,2,5,6-tetrahydro-3-pyridyl)-2H-tetrazole, hydrochloride], the IC50 came out at 250 nM in test [1] (setting [3]) and 390 nM in test [2]. As for `CC1=C(c2nnn(C)n2)CN(C)CC1` [Compound 38, 2-Methyl-5(1,4-dimethyl-1,2,5,6-tetrahydro-3-pyridyl)-2H-tetrazole, oxalate], the IC50 in test [1] (setting [3]) is 1200 nM; in test [2], 1000 nM. For `CC1=C(c2nnn(C)n2)CNCC1` [Compound 39, 2-Methyl-5-(4-methyl-1,2,5,6-tetrahydro-3-pyridyl)-2H-tetrazole, 0.75 oxalate] the same measures were 1500 nM and 810 nM. For `CC1C=C(c2nnn(C)n2)CNC1` (stereo not drawn) [Compound 47, 2-Methyl-5-(5-methyl-1,2,5,6-tetrahydro-3-pyridyl)-2H-tetrazole, hydrobromide] the same measures were 280 nM and 98 nM. As to `CC1C=C(c2nnn(C)n2)CN(C)C1` (stereo not drawn) [Compound 48, 2-Methyl-5-(1,5-dimethyl-1,2,5,6-tetrahydro-3-pyridyl)-2H tetrazole, oxalate], the IC50 in test [1] (setting [3]) was determined as 1800 nM; in test [2], 680 nM. For `C#CCn1nnc(C2=CC(C)CNC2)n1` (stereo not drawn) [Compound 50, 2-(2-Propynyl)-5-(5-methyl-1,2,5,6-tetrahydro-3-pyridyl)-2H-tetrazole hydrochloride], the values for the IC50 in test [1] (setting [3]) and in test [2] were 68 nM and 62 nM, respectively. Consider `Cc1cc(C2=CCCNC2)on1` [Compound 54, 3-Methyl-5(1,2,5,6-tetrahydro-3-pyridyl)-isoxazole, maleate], for which the half-maximal inhibitory concentration (IC50) in test [1] (setting [3]) is 4000 nM; in test [2], 230 nM.

As to `Cc1cc(C2=CCCNC2)no1` [Compound 55, 5-Methyl-3-(1,2,5,6-tetrahydro-3-pyridyl)-isoxazole, hydrochloride], the results for the IC50 in test [1] (setting [3]) and in test [2] were 2500 nM and 1000 nM, respectively. Take `CN1CCC=C(c2ncn(C)n2)C1` [Compound 59, 1-Methyl-3(1-methyl-1,2,5,6-tetrahydro-3-pyridyl)-1,2,4-triazole, hemifumarate]: the results for the half-maximal inhibitory concentration (IC50) in test [1] (setting [3]) and in test [2] were 610 nM and 280 nM, respectively. With `Cn1cnc(C2=CCCNC2)n1` [Compound 60, 1-Methyl-3-(1,2,5,6-tetrahydro-3-pyridyl-1,2,4-triazole, dihydrobromide], the results for the IC50 in test [1] (setting [3]) and in test [2] were 4900 nM and 1400 nM, respectively.

In the case of `Cc1nc(C2=CCCN(C)C2)nn1C` [Compound 63, 1,5-Dimethyl-3-(1-methyl-1,2,5,6-tetraydro-3-pyridyl)-1,2,4-triazole, fumarate], the IC50 in test [1] (setting [3]) was found to be 160 nM; in test [2] it was 710 nM.

Turning to `Cc1nc(C2=CCCNC2)nn1C` [Compound 64, 1,5Dimethyl-3-(1,2,5,6-tetrahydro-3-pyridyl)-1,2,4-triazole, dihydrobromide, dihydrate], the values for the IC50 in test [1] (setting [3]) and in test [2] were 2400 nM and 2100 nM, respectively. For `CSc1n[nH]c(C2=CCCN(C)C2)n1` [Compound 67, 3-Methylthio-5-(1-methyl-1,2,5,6-tetrahydro-3-pyridyl)-1,2,4-triazole, fumarate], the IC50 in test [1] (setting [3]) worked out at 2000 nM; in test [2] it was 1500 nM. For `CN1CCC=C(c2cnn(C)n2)C1` [Compound 70, 2-Methyl-4-(1-methyl-1,2,5,6-tetrahydro-3-pyridyl)-1,2,3-triazole, 1.5 fumarate], the IC50 in test [1] (setting [3]) came out at 5.5 nM; in test [2], 1.1 nM. Consider `Cn1ncc(C2=CCCNC2)n1` [Compound 72, 2-Methyl-4-(1,2,5,6-tetrahydro-3-pyridyl)-1,2,3-triazole, fumarate], for which the IC50 in test [1] (setting [3]) was determined as 790 nM; in test [2] it was 0.48 nM.

On to `Cc1cnc(C2=CCCN(C)C2)o1` [Compound 75, 5-Methyl-2-(1-methyl-1,2,5,6-tetraydro-3-pyridyl)-oxazole, oxalate], for which the IC50 was determined as 370 nM in test [1] (setting [3]) and 57 nM in test [2]. `Cc1cnc(C2=CCCNC2)o1` [Compound 76, 5-Methyl-2-(1,2,5,6-tetrahydro-3-pyridyl)-oxazole, fumarate]: the half-maximal inhibitory concentration (IC50) in test [1] (setting [3]) stood at 1300 nM; in test [2] it was 190 nM. For the compound `COc1cnc(C2=CCCN(C)C2)o1` [Compound 80, 5-Methoxy-2-(1-methyl-1,2,5,6-tetrahydro-3-pyridyl)-oxazol, oxalate], the concentration for half-maximal inhibition (IC50) in test [1] (setting [3]) was determined as 1500 nM.

As a reminder, the IC50 is the concentration needed to halve the response being measured.

Source of the values: patent USRE36374E, “1,2,3-triazole and tetrazole substituted piperidine or tetrahydropyridine compounds useful as acetylcholine agonists” (priority 1987, dated 1999).
